Measured values taken from the NIST ThermoML archive (doi:10.1021/je060271a).
Values joined by “and” are separate entries in the source; they are usually repeats but may differ in a detail not shown here. Identical values can stand only once.

Settings: Liquid, Vibrating tube method

CCCCC(=O)OCC(COC(=O)CCCC)(COC(=O)CCCC)COC(=O)CCCC [pentaerythritol tetrapentanoate]
Settings	mass density
283.14 K, 1387.6 kPa	1027.8 kg/m3
283.14 K, 1404.2 kPa	1027.9 kg/m3
283.14 K, 1537.6 kPa	1028 kg/m3
283.14 K, 1581.5 kPa	1028 kg/m3
283.14 K, 1602.2 kPa	1028 kg/m3
283.14 K, 7137 kPa	1031.3 kg/m3
283.14 K, 7155.5 kPa	1031.2 kg/m3
283.14 K, 7173.8 kPa	1031.2 kg/m3
283.14 K, 7196.4 kPa	1031.2 kg/m3
283.14 K, 7215.6 kPa	1031.3 kg/m3
283.14 K, 7545.3 kPa	1031.5 kg/m3
283.14 K, 7570.8 kPa	1031.5 kg/m3
283.14 K, 7613.2 kPa	1031.4 kg/m3
283.14 K, 7932.2 kPa	1031.7 kg/m3
283.14 K, 7959.6 kPa	1031.7 kg/m3
283.14 K, 7982.3 kPa	1031.7 kg/m3
283.14 K, 8033 kPa	1031.8 kg/m3
283.14 K, 8056.3 kPa	1031.7 kg/m3
283.14 K, 8103.7 kPa	1031.7 kg/m3
283.14 K, 8185.7 kPa	1031.9 kg/m3
283.14 K, 9062.7 kPa	1032.4 kg/m3
283.14 K, 9128.2 kPa	1032.3 kg/m3
283.14 K, 9352.3 kPa	1032.5 kg/m3
283.14 K, 9390.6 kPa	1032.6 kg/m3
283.14 K, 9422.3 kPa	1032.5 kg/m3
283.14 K, 9460.6 kPa	1032.5 kg/m3
283.14 K, 9493.3 kPa	1032.5 kg/m3
283.14 K, 9525.9 kPa	1032.5 kg/m3
283.14 K, 9558.8 kPa	1032.6 kg/m3
283.14 K, 10081 kPa	1032.9 kg/m3
283.14 K, 10162 kPa	1032.9 kg/m3
283.14 K, 11953 kPa	1034 kg/m3
283.15 K, 105.8 kPa	1027.1 kg/m3
283.15 K, 106 kPa	1027.1 kg/m3 and 1027.2 kg/m3
283.15 K, 106.2 kPa	1027.2 kg/m3 and 1027.1 kg/m3 and 1027 kg/m3
283.15 K, 106.3 kPa	1027.2 kg/m3
283.15 K, 106.7 kPa	1027.2 kg/m3
283.15 K, 107.6 kPa	1027.1 kg/m3
283.15 K, 108.1 kPa	1027.1 kg/m3
283.15 K, 109.5 kPa	1027 kg/m3
283.15 K, 111.9 kPa	1027.2 kg/m3
283.15 K, 117.3 kPa	1027.1 kg/m3
283.15 K, 124.3 kPa	1027.1 kg/m3
283.15 K, 130.2 kPa	1027.2 kg/m3
283.15 K, 135 kPa	1027.1 kg/m3
283.15 K, 140.8 kPa	1027.1 kg/m3
283.15 K, 147.2 kPa	1027.1 kg/m3
283.15 K, 154.9 kPa	1027.1 kg/m3
283.15 K, 163.9 kPa	1027.1 kg/m3
283.15 K, 178 kPa	1027.2 kg/m3
283.15 K, 192.4 kPa	1027.1 kg/m3
283.15 K, 213.6 kPa	1027.1 kg/m3
283.15 K, 233.4 kPa	1027.1 kg/m3
283.15 K, 247.7 kPa	1027.2 kg/m3
283.15 K, 264 kPa	1027.2 kg/m3
283.15 K, 279.7 kPa	1027.1 kg/m3
283.15 K, 296.5 kPa	1027.1 kg/m3
283.15 K, 313.2 kPa	1027.2 kg/m3
283.15 K, 332 kPa	1027.2 kg/m3
283.15 K, 349 kPa	1027.3 kg/m3
283.15 K, 368.1 kPa	1027.2 kg/m3
283.15 K, 391.4 kPa	1027.3 kg/m3
283.15 K, 406.5 kPa	1027.2 kg/m3
283.15 K, 423.1 kPa	1027.4 kg/m3
283.15 K, 437.7 kPa	1027.3 kg/m3
283.15 K, 452.6 kPa	1027.3 kg/m3
283.15 K, 469.3 kPa	1027.3 kg/m3
283.15 K, 482.3 kPa	1027.4 kg/m3
283.15 K, 495.9 kPa	1027.3 kg/m3
283.15 K, 512.7 kPa	1027.3 kg/m3
283.15 K, 528.4 kPa	1027.4 kg/m3
283.15 K, 544.4 kPa	1027.4 kg/m3
283.15 K, 563 kPa	1027.2 kg/m3
283.15 K, 579.3 kPa	1027.3 kg/m3
283.15 K, 596.9 kPa	1027.5 kg/m3
283.15 K, 618.9 kPa	1027.3 kg/m3
283.15 K, 638.7 kPa	1027.4 kg/m3
283.15 K, 659.6 kPa	1027.5 kg/m3
283.15 K, 682 kPa	1027.5 kg/m3
283.15 K, 710.3 kPa	1027.4 kg/m3
